The experiment addresses T1, BTK-WT (Homo sapiens, UniProt Q06187).
T1 construct: purified from insect cells as a full-length construct containing an N-terminal 6X-His tag; His6 (N); made in house; host or cells: insect cells (baculovirus Sf21 in Method B)
The experiment is described as follows: Btk in vitro inhibitory activity (one of Method A TR-FRET, Method B electrophoretic mobility shift, Method C radiometric filter binding). In kind it is biochemical. Conditions: D-compounds panel data; read-out: IC50 BTK-WT.
T1 sequence (Q06187 whole entry): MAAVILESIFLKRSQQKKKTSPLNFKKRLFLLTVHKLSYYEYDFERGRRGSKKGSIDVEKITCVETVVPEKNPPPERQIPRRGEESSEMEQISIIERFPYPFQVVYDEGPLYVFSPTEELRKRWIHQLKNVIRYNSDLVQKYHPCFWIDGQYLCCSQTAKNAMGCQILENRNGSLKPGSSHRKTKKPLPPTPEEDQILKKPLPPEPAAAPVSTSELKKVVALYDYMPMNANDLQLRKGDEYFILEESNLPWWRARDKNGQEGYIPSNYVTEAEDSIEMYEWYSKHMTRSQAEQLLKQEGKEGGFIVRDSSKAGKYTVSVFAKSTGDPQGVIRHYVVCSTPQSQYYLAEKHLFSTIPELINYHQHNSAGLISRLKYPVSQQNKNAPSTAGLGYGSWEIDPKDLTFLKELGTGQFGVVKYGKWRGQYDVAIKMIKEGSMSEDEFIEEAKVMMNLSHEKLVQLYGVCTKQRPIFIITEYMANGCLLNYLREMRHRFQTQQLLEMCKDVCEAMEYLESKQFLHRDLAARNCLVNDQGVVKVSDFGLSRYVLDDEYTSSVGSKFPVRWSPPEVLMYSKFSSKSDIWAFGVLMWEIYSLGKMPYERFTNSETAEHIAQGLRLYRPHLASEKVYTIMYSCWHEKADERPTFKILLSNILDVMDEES
As to `C[C@@H]1[C@H](NC(=O)c2ccc(C3CC3)cc2)CCCN1c1cnc(C(N)=O)c(Nc2ccc(OC3CCN4CCCC4C3)cc2)n1` (stereo partly drawn) [Example D-211, 5-[(2R,3R)-3-(4-cyclopropylbenzamido)-2-methylpiperidin-1-yl]-3-{[4-(octahydroindolizin-7-yloxy)phenyl]amino}pyrazine-2-carboxamide], the IC50 was at most 10 nM. Take `C[C@@H]1[C@H](NC(=O)c2ccc(C(C)(C)C)cn2)CCCN1c1cnc(C(N)=O)c(Nc2cnn(C)c2)n1` [Example D-208, 5-[(2R,3R)-3-(5-tert-butylpyridine-2-amido)-2-methylpiperidin-1-yl]-3-[(1-methyl-1H-pyrazol-4-yl)amino]pyrazine-2-carboxamide]: the IC50 was at most 10 nM. Under `Cn1cc(Nc2nc(N3C4CCC(NC(=O)c5ccc(C6CC6)cc5)C3CC4)cnc2C(N)=O)cn1` (single isomer, unassigned) [Example D-199, 5-[2-(4-cyclopropylbenzamido)-8-azabicyclo[3.2.1]octan-8-yl]-3-[(1-methyl-1H-pyrazol-4-yl)amino]pyrazine-2-carboxamide] stands 1000 to 10000 nM; under `C[C@@H]1[C@H](NC(=O)N(C)C)CCCN1c1cnc(C(N)=O)c(Nc2ccc(N3CCN(C4CCCC4)CC3)cc2)n1` [Example D-182, 3-{[4-(4-cyclopentylpiperazin-1-yl)phenyl]amino}-5-[(2R,3R)-3-[(dimethylcarbamoyl)amino]-2-methylpiperidin-1-yl]pyrazine-2-carboxamide], at most 10 nM; under `CC(C)c1ccc(C(=O)N[C@@H]2CCCN(c3cnc(C(N)=O)c(Nc4cnn(C)c4)n3)C2)cc1` [Example D-222, 3-[(1-Methyl-1H-pyrazol-4-yl)amino]-5-[(3R)-3-[4-(propan-2-yl)benzamido]piperidin-1-yl]pyrazine-2-carboxamide], at most 10 nM. For `C[C@@H]1[C@H](NC(=O)c2ccc(C3CC3)nc2)CCCN1c1cnc(C(N)=O)c(Nc2cnn(C)c2)n1` [Example D-18, 5-[(2R,3R)-3-(6-cyclopropylpyridine-3-amido)-2-methylpiperidin-1-yl]-3-[(1-methyl-1H-pyrazol-4-yl)amino]pyrazine-2-carboxamide] the value was at most 10 nM; for `C[C@@H]1[C@H](NC(=O)c2ccc(OC3CC3)cc2)CCCN1c1cnc(C(N)=O)c(Nc2cnn(C)c2)n1` [Example D-219, 5-[(2R,3R)-3-(4-cyclopropoxybenzamido)-2-methylpiperidin-1-yl]-3-[(1-methyl-1H-pyrazol-4-yl)amino]pyrazine-2-carboxamide], at most 10 nM; for `C[C@@H]1[C@H](NC(=O)c2cnc(C3CC3)cn2)CCCN1c1cnc(C(N)=O)c(Nc2cnn(C)c2)n1` [Example D-205, 5-[(2R,3R)-3-(5-cyclopropylpyrazine-2-amido)-2-methylpiperidin-1-yl]-3-[(1-methyl-1H-pyrazol-4-yl)amino]pyrazine-2-carboxamide], at most 10 nM.

Take `Cn1cc(Nc2nc(N3C4CCC(NC(=O)c5ccc(C6CC6)cc5)C3CC4)cnc2C(N)=O)cn1` (single isomer, unassigned) [Example D-201, 5-[2-(4-cyclopropylbenzamido)-8-azabicyclo[3.2.1]octan-8-yl]-3-[(1-methyl-1H-pyrazol-4-yl)amino]pyrazine-2-carboxamide]: the IC50 was at most 10 nM. As to `C[C@@H]1[C@H](NC(=O)c2ccc3c(c2)OC(F)(F)O3)CCCN1c1cnc(C(N)=O)c(Nc2cnn(C)c2)n1` [Example D-216, 5-[(2R,3R)-3-(2,2-difluoro-2H-1,3-benzodioxole-5-amido)-2-methylpiperidin-1-yl]-3-[(1-methyl-1H-pyrazol-4-yl)amino]pyrazine-2-carboxamide], the IC50 was at most 10 nM. For `C[C@@H]1[C@H](NC(=O)c2ccc(C3(O)CC3)cc2)CCCN1c1cnc(C(N)=O)c(Nc2cnn(C)c2)n1` [Example D-235, 5-[(2R,3R)-3-[4-(1-hydroxycyclopropyl)benzamido]-2-methylpiperidin-1-yl]-3-[(1-methyl-1H-pyrazol-4-yl)amino]pyrazine-2-carboxamide] the value was at most 10 nM; for `C[C@@H]1[C@H](NC(=O)c2ccc(C(C)(C)C)s2)CCCN1c1cnc(C(N)=O)c(Nc2cnn(C)c2)n1` [Example D-229, 5-[(2R,3R)-3-(5-tert-butylthiophene-2-amido)-2-methylpiperidin-1-yl]-3-[(1-methyl-1H-pyrazol-4-yl)amino]pyrazine-2-carboxamide], at most 10 nM; for `C[C@@H]1[C@H](NC(=O)c2ccc(C3CC3)cc2)CCCN1c1cnc(C(N)=O)c(Nc2cnn(CC(C)(C)O)c2)n1` [Example D-215, 5-[(2R,3R)-3-(4-cyclopropylbenzamido)-2-methylpiperidin-1-yl]-3-{[1-(2-hydroxy-2-methylpropyl)-1H-pyrazol-4-yl]amino}pyrazine-2-carboxamide], at most 10 nM.

`C[C@@H]1[C@H](NC(=O)c2ccc(C3CC3)cc2F)CCCN1c1cnc(C(N)=O)c(Nc2cc(CN3CCCCC3)ns2)n1` [Example D-176, 5-[(2R,3R)-3-(4-cyclopropyl-2-fluorobenzamido)-2-methylpiperidin-1-yl]-3-{[3-(piperidin-1-ylmethyl)-1,2-thiazol-5-yl]amino}pyrazine-2-carboxamide]: the IC50 was at most 10 nM. Under `C[C@@H]1[C@H](NC(=O)c2ccc(C(O)(C(F)(F)F)C(F)(F)F)cc2)CCCN1c1cnc(C(N)=O)c(Nc2cnn(C)c2)n1` [Example D-240, 5-[(2R,3R)-3-[4-(1,1,1,3,3,3-hexafluoro-2-hydroxypropan-2-yl)benzamido]-2-methylpiperidin-1-yl]-3-[(1-methyl-1H-pyrazol-4-yl)amino]pyrazine-2-carboxamide] stands at most 10 nM; under `Cc1cc(Nc2nc(N3CCC[C@@H](c4ncc(-c5ccccc5)[nH]4)C3)cnc2C(N)=O)sn1` [Example D-171, 3-[(3-methyl-1,2-thiazol-5-yl)amino]-5-[(3R)-3-(5-phenyl-1H-imidazol-2-yl)piperidin-1-yl]pyrazine-2-carboxamide], 10 to 100 nM. Under `CCN(CC)c1ccc(C(=O)N[C@@H]2CCCN(c3cnc(C(N)=O)c(Nc4cnn(C)c4)n3)[C@@H]2C)cc1` [Example D-218, 5-[(2R,3R)-3-[4-(diethylamino)benzamido]-2-methylpiperidin-1-yl]-3-[(1-methyl-1H-pyrazol-4-yl)amino]pyrazine-2-carboxamide] stands at most 10 nM; under `Cc1cc(Nc2nc(N3CCC[C@H](c4ncc(-c5ccccc5)[nH]4)C3)cnc2C(N)=O)sn1` [Example D-172, 3-[(3-methyl-1,2-thiazol-5-yl)amino]-5-[(3S)-3-(5-phenyl-1H-imidazol-2-yl)piperidin-1-yl]pyrazine-2-carboxamide], 10 to 100 nM; under `Cc1cc(Nc2nc(N3CCC[C@@H](c4ncc(-c5ccc(C6CC6)cc5)[nH]4)[C@H]3C)cnc2C(N)=O)sn1` [Example D-186, 5-[(2R,3R)-3-[5-(4-cyclopropylphenyl)-1H-imidazol-2-yl]-2-methylpiperidin-1-yl]-3-[(3-methyl-1,2-thiazol-5-yl)amino]pyrazine-2-carboxamide], 10 to 100 nM. For `C[C@@H]1[C@H](NC(=O)c2ccc(C3CC3)nc2)CCCN1c1cnc(C(N)=O)c(Nc2ccc(N3CCN(C)CC3)cc2)n1` [Example D-203, 5-[(2R,3R)-3-(6-cyclopropylpyridine-3-amido)-2-methylpiperidin-1-yl]-3-{[4-(4-methylpiperazin-1-yl)phenyl]amino}pyrazine-2-carboxamide], the IC50 was at most 10 nM. Under `C[C@@H]1[C@H](NC(=O)c2ccc3c(c2)OCCO3)CCCN1c1cnc(C(N)=O)c(Nc2cnn(C)c2)n1` [Example D-224, 5-[(2R,3R)-3-(2,3-dihydro-1,4-benzodioxine-6-amido)-2-methylpiperidin-1-yl]-3-[(1-methyl-1H-pyrazol-4-yl)amino]pyrazine-2-carboxamide] stands at most 10 nM; under `Cc1ncc(Nc2nc(N3CCC[C@@H](NC(=O)c4ccc(C5CC5)cc4)[C@H]3C)cnc2C(N)=O)s1` [Example D-210, 5-[(2R,3R)-3-(4-cyclopropylbenzamido)-2-methylpiperidin-1-yl]-3-[(2-methyl-1,3-thiazol-5-yl)amino]pyrazine-2-carboxamide], at most 10 nM. For `Cn1cc(Nc2nc(N3CCC[C@@H](n4ccc5cc(C6CC6)ncc5c4=O)C3)cnc2C(N)=O)cn1` [Example D-225, 5-[(3R)-3-(6-cyclopropyl-1-oxo-1,2-dihydro-2,7-naphthyridin-2-yl)piperidin-1-yl]-3-[(1-methyl-1H-pyrazol-4-yl)amino]pyrazine-2-carboxamide] the value was at most 10 nM; for `CN1CCN(C(=O)c2ccc(Nc3nc(N4CCC[C@@H](n5ccc6cc(C7CC7)ccc6c5=O)C4)cnc3C(N)=O)cc2)CC1` [Example D-169, 5-[(3R)-3-(6-cyclopropyl-1-oxo-1,2-dihydroisoquinolin-2-yl)piperidin-1-yl]-3-{[4-(4-methylpiperazine-1-carbonyl)phenyl]amino}pyrazine-2-carboxamide], at most 10 nM; for `CC(C)c1ccc(S(=O)(=O)N[C@@H]2CCCN(c3cnc(C(N)=O)c(Nc4cnn(C)c4)n3)[C@@H]2C)cc1` [Example D-220, 3-[(1-methyl-1H-pyrazol-4-yl)amino]-5-[(2R,3R)-2-methyl-3-[4-(propan-2-yl)benzenesulfonamido]piperidin-1-yl]pyrazine-2-carboxamide], 1000 to 10000 nM.

On to `C[C@@H]1[C@H](NC(=O)c2ccc(C(C)(C)C)cc2F)CCCN1c1cnc(C(N)=O)c(Nc2cnn(C)c2)n1` [Example D-223, 5-[(2R,3R)-3-(4-tert-butyl-2-fluorobenzamido)-2-methylpiperidin-1-yl]-3-[(1-methyl-1H-pyrazol-4-yl)amino]pyrazine-2-carboxamide], for which the IC50 was at most 10 nM. Take `C[C@@H]1[C@H](NC(=O)c2ccc(C3CC3)cc2Cl)CCCN1c1cnc(C(N)=O)c(Nc2ccc(N3CCN(C)CC3)cc2)n1` [Example D-16, 5-[(2R,3R)-3-(2-chloro-4-cyclopropylbenzamido)-2-methylpiperidin-1-yl]-3-{[4-(4-methylpiperazin-1-yl)phenyl]amino}pyrazine-2-carboxamide]: the IC50 was at most 10 nM.

These data come from patent publication US20210070748A1, “INHIBITORS OF BRUTONS TYROSINE KINASE” (Pharmacyclics LLC, priority 2015, published 2021).
